Values quoted from earlier work in US7147859B2 (Laboratorios Biosintetica LTDA., priority 2000, dated 2006).

System: cholesterol absorbance
Conditions: in vivo

Compound: CCC(CCC(C)C1CCC2C3CC=C4CC(O)CCC4(C)C3CCC12C)C(C)C (stereo not shown) [Betasitosterol]
- reduction of cholesterol absorbance: up to 68%
